PubChem BioAssay AID1918993 (Molecular Pharmacology Branch, DTP, NCI, 2023)

Test system: 233499-124-R-J3-PDC complex spheroid growth
Assay: Anticancer human tumor 233499-124-R-J3-PDC patient-derived colon adenocarcinoma cell line growth inhibition [AhR]
Conditions: for IC50: curve of first compound; for viability, T/C: stronger effect = lower value
How it was run: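 Complex tumor spheroids co-cultured with HUVEC and human MSC stroma; AhR antagonists tested in combination with standard-of-care and investigational agents. Top concentration at or near clinical Cmax (else 10 microM), half-log dilutions; growth expressed as percent test/control.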

[1] = second compound 0.1 µM, first compound 0.0316 µM
[2] = second compound 0.1 µM, first compound 0.1 µM
[3] = second compound 0.1 µM, first compound 0.316 µM
[4] = second compound 0.1 µM, first compound 1 µM
[5] = second compound 0.1 µM, first compound 3.16 µM
[6] = second compound 0.1 µM, first compound 10 µM
[7] = second compound 0.316 µM, first compound 0.0316 µM
[8] = second compound 0.316 µM, first compound 0.1 µM
[9] = second compound 0.316 µM, first compound 0.316 µM
[10] = second compound 0.316 µM, first compound 1 µM
[11] = second compound 0.316 µM, first compound 3.16 µM
[12] = second compound 0.316 µM, first compound 10 µM
[13] = second compound 1 µM, first compound 0.0316 µM
[14] = second compound 1 µM, first compound 0.1 µM
[15] = second compound 1 µM, first compound 0.316 µM
[16] = second compound 1 µM, first compound 1 µM
[17] = second compound 1 µM, first compound 3.16 µM
[18] = second compound 1 µM, first compound 10 µM
[19] = second compound 3.16 µM, first compound 0.0316 µM
[20] = second compound 3.16 µM, first compound 0.1 µM
[21] = second compound 3.16 µM, first compound 0.316 µM
[22] = second compound 3.16 µM, first compound 1 µM
[23] = second compound 3.16 µM, first compound 3.16 µM
[24] = second compound 3.16 µM, first compound 10 µM
[25] = second compound 10 µM, first compound 0.0316 µM
[26] = second compound 10 µM, first compound 0.1 µM
[27] = second compound 10 µM, first compound 0.316 µM
[28] = second compound 10 µM, first compound 1 µM
[29] = second compound 10 µM, first compound 3.16 µM
[30] = second compound 10 µM, first compound 10 µM
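Also: spheroids exposed to agents for seven days before reading.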

Row | Structure (SMILES) | IC50 (second compound 0.1 µM) | IC50 (second compound 0.316 µM) | IC50 (second compound 1 µM) | IC50 (second compound 3.16 µM) | IC50 (second compound 10 µM) | viability, T/C [1] | viability, T/C [2] | viability, T/C [3] | viability, T/C [4] | viability, T/C [5] | viability, T/C [6] | viability, T/C [7] | viability, T/C [8] | viability, T/C [9] | viability, T/C [10] | viability, T/C [11] | viability, T/C [12] | viability, T/C [13] | viability, T/C [14] | viability, T/C [15] | other results
1 | CC1(C)CCC(CN2CCN(c3ccc(C(=O)NS(=O)(=O)c4ccc(NCC5CCOCC5)c([N+](=O)[O-])c4)c(Oc4cnc5[nH]ccc5c4)c3)CC2)=C(c2ccc(Cl)cc2)C1 + CC(CO)NC(=O)c1cc(-c2ccc(Cl)cc2)nn(-c2cnn(C)c2)c1=O | 6.82 µM | 7.05 µM | 6.78 µM | 6.62 µM | 6.5 µM | 99.8% | 89.7% | 97.5% | 102% | 108% | 25.3% | 94.5% | 91.2% | 91.1% | 90.7% | 109% | 30.4% | 97.4% | 96.5% | 90.7% | viability, T/C [16]: 104%; viability, T/C [17]: 103%; viability, T/C [18]: 25.5%; viability, T/C [19]: 97.5%; viability, T/C [20]: 92.1%; viability, T/C [21]: 94.5%; viability, T/C [22]: 106%; viability, T/C [23]: 96.8%; viability, T/C [24]: 23.8%; viability, T/C [25]: 79.2%; viability, T/C [26]: 89.5%; viability, T/C [27]: 86.8%; viability, T/C [28]: 90.9%; viability, T/C [29]: 92.9%; viability, T/C [30]: 27.4%
2 | CC1COCCN1c1cc(C2(S(C)(=N)=O)CC2)nc(-c2ccnc3[nH]ccc23)n1 (stereo not given) + CC(CO)NC(=O)c1cc(-c2ccc(Cl)cc2)nn(-c2cnn(C)c2)c1=O | > 10 µM | > 10 µM | > 10 µM | > 10 µM | > 10 µM | 101% | 97.2% | 94.2% | 91% | 75.8% | 74.1% | 88.2% | 89.1% | 97.3% | 83% | 87.4% | 72.1% | 79.7% | 96.2% | 90.3% | viability, T/C [16]: 92.3%; viability, T/C [17]: 86.9%; viability, T/C [18]: 69%; viability, T/C [19]: 98.8%; viability, T/C [20]: 95.8%; viability, T/C [21]: 91.3%; viability, T/C [22]: 85.9%; viability, T/C [23]: 82.5%; viability, T/C [24]: 68.3%; viability, T/C [25]: 72.5%; viability, T/C [26]: 79%; viability, T/C [27]: 82.2%; viability, T/C [28]: 79.5%; viability, T/C [29]: 61.8%; viability, T/C [30]: 56.6%
